Results on one sequence are retold here after US9790496B2, “Microrna compounds and methods for modulating MIR-21 activity” (Regulus Therapeutics, Inc., priority 2011, dated 2017).

Values joined by “and” are separate entries in the source; they are usually repeats but may differ in a detail not shown here. Equal values may be shown once.

Data set [1] deals with collagen 1A1 and collagen 3A1 expression in kidney, unilateral ureteral obstruction (UUO) model. Kind of data set: UUO model of kidney fibrosis: kidney collagen 1A1 and collagen 3A1 expression by real-time PCR. Type of data set: in vivo, mice. Particulars: for Collagen 1A1 (Normalized Expression), individual animal / Collagen 3A1 (Normalized Expression), individual animal: 20 mg/kg. The method, boiled down:
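Fibrosis induced by unilateral ureter ligation, groups of 8; anti-miR-21 compounds dosed at 20 mg/kg around surgery (days −3, −1, +5 or −5, −3, +3; repeat study subcutaneous at −5, −2, +3). Kidneys taken on day 10 or 11; Col1A1 and Col3A1 mRNA measured by real-time PCR, normalized to GAPDH and, in one study, also to sham.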

The nature of data set [2]: In vivo stability: compound in kidney tissue after administration to mice. Particulars: mice; by 7 days post-injection.
A short description of data set [3]: Ex vivo liver homogenate stability assay (HPLC-TOF MS). Particulars: 5 μM in liver homogenate (50 mg tissue per ml), 24 hours at 37° C.
Data set [4] has as its system ischemia reperfusion injury/nephrectomy (IR/Nx) model. Kind of data set: Ischemia reperfusion injury/nephrectomy (IR/Nx) model: urinary albumin to creatinine ratio. Type of data set: in vivo, mouse. From the text: An ischemia reperfusion injury/nephrectomy (IR/Nx) model is created in the mouse through temporary unilateral clamping of an artery in one kidney, which leads to tubule damage, inflammation, and fibrosis, followed by removal of the second kidney at a later timepoint. In this model, the acute kidney dysfunction phase is useful to test candidate agents for the treatment of acute kidney injury (i.e. up to about the first 5 days), and the later phases of kidney dysfunction are useful to model chronic fibrosis (i.e. after about the first 5 days).
Anti-miR-21 compounds were tested in the IR/Nx model. 25109, a 6-base mismatch to miR-21, was used as a control compound ([…]; where nucleosides not followed by a subscript indicate β-deoxynucleosides; nucleosides followed by a subscript “E” indicate 2′-MOE nucleosides; nucleosides followed by a subscript “S” indicate S-cEt nucleosides; and all internucleoside linkages are phosphorothioate internucleoside linkages).
Unilateral IR was induced for a period of 30 minutes. Treatment groups were as follows: sham IR procedure; IR with PBS administered subcutaneously; IR with mismatched control 25109 administered subcutaneously at a dose of 20 mg/kg; IR with anti-miR-21 compound 25070 administered subcutaneously at a dose of 20 mg/kg; and IR with anti-miR-21 compound 25923 administered subcutaneously at a dose of 20 mg/kg. PBS or anti-miR was administered on days 2, 3, 4, and 8 following IR. On day 8, the healthy kidney was removed by nephrectomy from each animal, and animals were sacrificed on day 9. Just prior to sacrifice, urine was collected by direct bladder puncture.
Urinary albumin to creatinine ratio was measured in the urine from each mouse. […] The geometric mean of the albumin to creatinine ratio in each group of mice was 16 μgAlb/mgCr (nephrectomy-only control), 127 μgAlb/mgCr (IR/Nx, PBS control), 140 μgAlb/mgCr (IR/Nx, 25109 control), 40 μgAlb/mgCr (IR/Nx, 25070), and 31 μgAlb/mgCr (IR/Nx, 25923). Blood urea nitrogen and serum creatinine levels were similar across all IR/Nx mice, and were elevated relative to nephrectomy-only control mice (data not shown).

The subject of data set [5] is collagen 1A1 and collagen 3A1 expression in kidney, ischemia reperfusion injury (IRI) model. Kind of data set: Unilateral ischemia reperfusion injury (IRI) model: kidney collagen 1A1 and collagen 3A1 expression. Format: in vivo, mouse. Particulars: 14 day study, dosing Day 5, 6, 7, fold change relative to sham.
Setting [6] is: UUO comparison study, 25070 20 mg/kg s.c. at days -5, -2, +3, irbesartan PO daily days 0-7, sacrifice Day 10.
[7] abbreviates: UUO, 20 mg/kg at days -3, -1, +5 (prophylactic), kidney at day 11, real-time PCR normalized to GAPDH then sham.
Setting [8] is: meta-analysis of repeated UUO studies, 20 mg/kg at days -3, -1, +5, kidney at day 11.
The mark [9] stands for this setting: repeat UUO study, 20 mg/kg SC, prophylactic.

As for “AECSATCSAGTCSTGAUSAAGCSTAE (ACATCAGTCTGATAAGCTA; modified nucleosides coded in name, code key not given here) [Compound 25070]”, in data set [1] (setting [6]), the “Collagen 1A1 (Normalized Expression), individual animal” value was 87.5 and 67.4 and 22.2 and 61.9 and 42.0 and 69.2 and 68.4 and 95.2; the “Collagen 3A1 (Normalized Expression), individual animal” value (shortened to “Collagen 3A1 (Normalized Expression)”) was 38.6 and 56.9 and 77.2 and 50.7 and 76.4 and 49.7 and 44.3 and 35.9. Also, the “reduction in Col3a1 expression (in words)” value in data set [1] (UUO comparison with irbesartan, 25070 s.c. 20 mg/kg days -5, -2, +3, irbesartan perorally daily days 0-7, day 10) was “statistically significant reductions”. Further, the “reduction in Col1A1 expression relative to saline-treated animals (in words)” value in data set [1] (UUO comparison with irbesartan, 25070 s.c. 20 mg/kg days -5, -2, +3, irbesartan perorally daily days 0-7, day 10, p<0.05 one-way ANOVA) is “statistically significant reduction”. In data set [1] (UUO, 20 mg/kg at days -3, -1, +5 (prophylactic), kidney at day 11, group mean), the “Collagen 1A1 (Normalized Expression), Mean” value is on record as 81.0. Further, in data set [1] (setting [7]), the “Collagen 1A1 (Normalized Expression), individual animal” value was 67.7 and 97.7 and 88.8 and 95.9 and 71.4 and 44.5 and 73.0 and 109.4; the “Collagen 3A1 (Normalized Expression)” value is 36.4 and 75.6 and 47.3 and 55.5 and 63.3 and 28.5 and 64.2 and 72.9. Besides, in data set [1] (setting [8]), the “inhibition of collagen 1A1 expression” value worked out at 40% and the “inhibition of collagen 3A1 expression” value is reported as 30%. In data set [1] (setting [9]), the “Collagen 1A1 (Normalized Expression), individual animal” value is 13.9 and 9.2 and 32.3 and 57.2 and 47.6 and 26.1 and 35.0 and 20.4; the “Collagen 3A1 (Normalized Expression)” value is 34.9 and 47.4 and 25.3 and 38.0 and 47.9 and 54.3 and 56.1 and 35.2. Besides, in data set [1] (repeated UUO study, subcutaneously 20 mg/kg, prophylactic), the “inhibition of collagen 1A1 and collagen 3A1 expression (in words)” value was “potent inhibitor of collagen 1A1 and collagen 3A1 expression”. In data set [2], the “compound present in kidney tissue lacking the 3'-terminal nucleoside” value is on record as “about 50%”. Further, in data set [3], the “compound lacking the 3'-terminal nucleoside” value is “about 27%” and the “compound present as the full-length compound” value is “about 58%”. The “reduction in urinary albumin to creatinine ratio (in words)” value in data set [4] (s.c. 20 mg/kg on days 2, 3, 4, 8) was “statistically significant reductions”. Further, in data set [4] (s.c. 20 mg/kg on days 2, 3, 4, 8, urine day 9, PBS control 127, nephrectomy-only 16), the “geometric mean of the urinary albumin to creatinine ratio” value is listed as 40 μgAlb/mgCr. Further, in data set [5], the “Collagen 1A1 (Normalized Expression), individual animal” value is 21.7 and 22.8 and 15.8 and 27.6 and 27.1 and 29.3 and 10.8 and 21.5 and 29.9 and 35.0 and 28.3 and 24.2; the “Collagen 3A1 (Normalized Expression)” value was 24.9 and 26.3 and 13.6 and 25.4 and 32.7 and 29.9 and 9.7 and 22.2 and 33.2 and 35.4 and 32.3 and 28.9.
